What was measured:
Colo205 cells = assay: Apoptosis of Colo205 cells by 5F1 antibodies in combination with Oxaliplatin (24 h, Annexin V / PI); type: cell-based; settings: background subtracted
Description: 1.4×10^5 of Colo205 cells were seeded into the wells of 96-well plates. Aliquots of Oxaliplatin reconstituted in 5% glucose solution were prepared freshly and added to each well at the final concentration of 1 and 10 ug/ml, along or in combination with aliquots of purified c5F1-v17, c5F1-v24, c5F1-v25 and control antibodies at the final concentrations of 10 and 30 ug/ml. The treated cells were kept at 37° incubator for 24 h before FACS analysis for apoptosis. For cellular apoptosis assay, Annexin V staining was measured using Annexin-V-FITC Apoptosis Detection Kit (Strong Biotech, Cat. No. AV 250) following the manufacturer's instruction. In brief, the treated cells were harvested and resuspended in Annexin V binding buffer containing Annexin V-FITC at room temperature. After 15 min incubation in the dark, the cells were washed twice with 200 ul of Annexin V binding buffer. Before FACS analysis, 0.5 ul of propidium iodide (PI) was added. All flow cytometric analyses were performed on a BD-LSR flow cytometer (Becton Dickinson) using the Cell Quest software. The Annexin V positive and/or PI positive cells are considered apoptotic cells.

COLO 205 cells [1] = assay: Binding assay: flow cytometric binding of 5F1 antibodies to COLO 205 cells; settings: for binding to Colo 205 (words): FIG. 3, 0.125 to 4 ug/ml
Description: Purified m5F1, c5F1-v0, c5F1-v15 and c5F1-v16 antibodies at the concentration ranging from 0.125 to 4 ug/ml were added to 1.5×10^5 COLO 205 cells and incubated for 30 min at 4° C., washed for twice with PBS containing 2% FBS and 0.05% NaN3, followed by incubation with 1 μg/ml of corresponding secondary antibodies (R-PE-conjugated goat F(ab′)2 anti-mouse IgG(H+L), Southern Biotech, Cat. No. 1032-09; or R-PE-conjugated goat anti-human IgG, Southern Biotech, Cat. No. 2040-09) at 4° C. for 30 min. At the end of staining, samples were washed twice with PBS containing 2% FBS and 0.05% NaN3 and analyzed by flow cytometer. All flow cytometric analyses were performed on a BD-LSR flow cytometer (Becton Dickinson) using the Cell Quest software.
Purified m5F1, c5F1-v0, c5F1-yl7, c5F1-v24 and c5F1-v25 antibodies at 1 ug/ml were added to 2×10^5 Colo 205 cells and incubated for 30 min at 4° C., washed for twice with PBS containing 1% FBS, followed by incubation with 1 ug/ml of corresponding secondary antibodies (R-PE-conjugated goat F(ab′)2 anti-mouse IgG(H+L), Southern Biotech, Cat. No. 1032-09; or R-PE-conjugated goat anti-human IgG, Southern Biotech, Cat. No. 2040-09) at 4° C. for 30 min. At the end of staining, samples were washed twice with PBS containing 1% FBS and 0.05% NaN3 and analyzed by flow cytometer. All flow cytometric analyses were performed on a BD-LSR flow cytometer (Becton Dickinson) using the Cell Quest software.

COLO 205 cells [2] = assay: Six-hour apoptosis assay (Annexin V / PI, FACS) in COLO 205; type: cell-based; settings: 6 h
Description: 1.5×10^5 of COLO 205 cells were seeded into the wells of 96-well plates. Aliquots of purified m5F1, c5F1-v0, c5F1-v15, c5F1-v16 and control antibodies at the concentration ranging from 2 to 32 ug/ml were prepared freshly in culture medium and added to each well. The sample treated with m9E10 and h16C11A were used as isotype control. The treated cells were kept at 37° incubator for 6 h before FACS analysis for apoptosis. For cellular apoptosis assay, Annexin V staining was measured using Annexin-V-FITC Apoptosis Detection Kit (Strong Biotech, Cat. No. AVK250) following the manufacturer's instruction. In brief, the treated cells were harvested and resuspended in Annexin V binding buffer containing Annexin V-FITC at room temperature. After 15 min incubation in the dark, the cells were washed twice with 200 μl of Annexin V binding buffer. Before FACS analysis, 0.25 μg/ml of propidium iodide (PI) was added. All flow cytometric analyses were performed on a BD-LSR flow cytometer (Becton Dickinson) using the Cell Quest software. The Annexin VI positive and/or PI positive cells are considered apoptotic cells.
1.5×10^5 of Colo205 cells were seeded into the wells of 96-well plates. Aliquots of purified m5F1, c5F1, c5F1-v17, c5F1-v24, c5F1-v25 and control antibodies at the concentration ranging from 8 to 32 ug/ml were prepared freshly in culture medium and added to each well. The treated cells were kept at 37° incubator for 6 h before FACS analysis for apoptosis. For cellular apoptosis assay, Annexin V staining was measured using Annexin-V-FITC Apoptosis Detection Kit (Strong Biotech, Cat. No. AV 250) following the manufacturer's instruction. In brief, the treated cells were harvested and resuspended in Annexin V binding buffer containing Annexin V-FITC at room temperature. After 15 min incubation in the dark, the cells were washed twice with 200 ul of Annexin V binding buffer. Before FACS analysis, 0.25 ug/ml of propidium iodide (PI) was added. All flow cytometric analyses were performed on a BD-LSR flow cytometer (Becton Dickinson) using the Cell Quest software. The Annexin VI positive and/or PI positive cells are considered apoptotic cells.

Row | Compound | % apoptosis (Colo205 cells; Oxaliplatin 1 ug/ml alone (Antibody 0)) | % apoptosis (Colo205 cells; Oxaliplatin 10 ug/ml alone (Antibody 0)) | binding to Colo 205 (words) (COLO 205 cells [1]) | binding to Colo 205 (words) (COLO 205 cells [1]; listed as c5F1v0) | Median Fluorescence Intensity (MFI) (COLO 205 cells [1]; Table 10, antibodies at 1 ug/ml) | apoptosis-inducing activity in COLO 205 (COLO 205 cells [2]; 2 to 32 ug/ml, compared with m5F1) | % of Annexin V and/or PI positive cells (COLO 205 cells [2]; Table 7, 4 ug/ml) | % of Annexin V and/or PI positive cells (COLO 205 cells [2]; Table 7, 8 ug/ml) | % of Annexin V and/or PI positive cells (COLO 205 cells [2]; Table 7, 16 ug/ml) | % of Annexin V and/or PI positive cells (COLO 205 cells [2]; Table 7, 32 ug/ml) | % of Annexin V and/or PI positive cells (COLO 205 cells [2]; Table 11 Exp. 1, 8 ug/ml) | % of Annexin V and/or PI positive cells (COLO 205 cells [2]; Table 11 Exp. 1, 16 ug/ml) | % of Annexin V and/or PI positive cells (COLO 205 cells [2]; Table 11 Exp. 1, 32 ug/ml) | % of Annexin V and/or PI positive cells (COLO 205 cells [2]; Table 11 Exp. 2, 8 ug/ml) | % of Annexin V and/or PI positive cells (COLO 205 cells [2]; Table 11 Exp. 2, 16 ug/ml) | % of Annexin V and/or PI positive cells (COLO 205 cells [2]; Table 11 Exp. 2, 32 ug/ml)
1 | O=C1[O][Pt]2([NH][C@@H]3CCCC[C@H]3[NH]2)[O]C1=O [Oxaliplatin] | 2% | 6% | – | – | – | – | – | – | – | – | – | – | – | – | – | –
2 | c5F1-v0: chimeric 5F1: variable region of murine 5F1 with constant region of human IgG1; heavy chain v0[H], light chain v0[L] | – | – | bind COLO 205 cells | significant binding | 2760 | not as efficient as m5F1 | 33% | 46% | 68% | 78% | 34% | 60% | 70% | 54% | 63% | 69%
